Measurements taken from ChEMBL document CHEMBL1201862, “PubChem BioAssay data set” (2004).
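Cells were grown in 96-well plates and exposed to each compound for 48 hours at five concentrations; endpoints were interpolated linearly between bracketing concentrations, or set to the highest concentration if not reached. GI50 = concentration required for 50% inhibition of growth.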 The source made the active and inactive calls. Cut-off read from the data, not from the text of the source: active = GI50 up to about 1.1 µM and inactive = higher.

Legend:
Assay in all cases: inhibition of tumour cell growth, NCI panel, 48 h
[1] = system: KM12
[2] = system: RPMI-8226
[3] = system: U-251
[4] = system: UACC-257
[5] = system: A549
[6] = system: LOX IMVI
[7] = system: HCT-116
[8] = system: NCI-H23
[9] = system: MOLT-4
[10] = system: ACHN
[11] = system: HL-60
[12] = system: SF-268
[13] = system: SK-MEL-28
[14] = system: UO-31
[15] = system: SN12C
[16] = system: CCRF-CEM
[17] = system: NCI-H460
[18] = system: HOP-62
[19] = system: RXF 393

SMILES | GI50 [1] | GI50 [2] | GI50 [3] | GI50 [4] | GI50 [5] | GI50 [6] | GI50 [7] | GI50 [8] | GI50 [9] | GI50 [10] | GI50 [11] | GI50 [12] | GI50 [13] | GI50 [14] | GI50 [15] | GI50 [16] | GI50 [17] | GI50 [18] | GI50 [19]
O=[S@@]1Nc2ccc(Br)cc2S1 | 2.48 µM (inactive) | > 100 µM (inactive) | 5.18 µM (inactive) | > 100 µM (inactive) | 4.56 µM (inactive) | 0.437 µM (active) | 4.66 µM (inactive) | 25.2 µM (inactive) | 6.47 µM (inactive) | 1.07 µM (active) | 2.22 µM (inactive) | 2.44 µM (inactive) | 4.53 µM (inactive) | 1.05 µM (active) | 37.7 µM (inactive) | 1.64 µM (inactive) |  |  | 
COc1cc(C2C3=C(COC3=O)Oc3cc4c(cc32)OCO4)cc(OC)c1O (stereo not given) | < 0.01 µM (active) | < 0.0232 µM (active) | < 0.0134 µM (active) |  | < 0.0141 µM (active) | < 0.0112 µM (active) | 0.0103 µM (active) | 0.465 µM (active) | 0.0175 µM (active) | < 0.0119 µM (active) | < 0.01 µM (active) | 0.226 µM (active) | < 0.01 µM (active) | 0.0592 µM (active) | 0.0364 µM (active) | 0.0134 µM (active) | < 0.0139 µM (active) | < 0.0135 µM (active) | < 0.01 µM (active)
CC(=O)N(C(=O)CC(=O)N1N=C(C)C(/N=N/c2cccc([N+](=O)[O-])c2)C1=O)c1ccc(Cl)cc1 (stereo not given) | > 10 µM (inactive) | > 10 µM (inactive) | > 10 µM (inactive) | > 10 µM (inactive) | > 10 µM (inactive) | > 10 µM (inactive) | > 10 µM (inactive) | 7.03 µM (inactive) |  | > 10 µM (inactive) | > 10 µM (inactive) | > 10 µM (inactive) | > 10 µM (inactive) |  | > 10 µM (inactive) | > 10 µM (inactive) |  | > 10 µM (inactive) | 
CCOC(=O)c1nc2ccc(OC)cc2c2c1Cc1ccccc1-2 | > 100 µM (inactive) | > 100 µM (inactive) | > 100 µM (inactive) | > 100 µM (inactive) | > 100 µM (inactive) | > 100 µM (inactive) | 8.95 µM (inactive) | > 100 µM (inactive) | > 100 µM (inactive) | > 100 µM (inactive) |  | > 100 µM (inactive) | > 100 µM (inactive) | > 100 µM (inactive) | > 100 µM (inactive) |  | > 100 µM (inactive) | > 100 µM (inactive) | 16.2 µM (inactive)
COc1ccc(CNc2nc(NCc3ccc(OC)c(OC)c3)nc(NC3CCCCC3)n2)cc1 | 1.21 µM (inactive) | 3.6 µM (inactive) | 3.44 µM (inactive) | > 100 µM (inactive) | 5.46 µM (inactive) | 5.33 µM (inactive) | 2.69 µM (inactive) | 2.86 µM (inactive) | 5.22 µM (inactive) | 7.94 µM (inactive) | 2.77 µM (inactive) |  | > 100 µM (inactive) | 5.18 µM (inactive) | 6.18 µM (inactive) | 3.66 µM (inactive) | 2.8 µM (inactive) |  | 2.23 µM (inactive)
NC(CCOCCP(=O)(O)CCOCCC(N)C(=O)O)C(=O)O (stereo not given) | > 100 µM (inactive) | > 100 µM (inactive) | > 100 µM (inactive) | > 100 µM (inactive) | > 100 µM (inactive) |  | > 100 µM (inactive) | > 100 µM (inactive) | > 100 µM (inactive) | > 100 µM (inactive) | > 100 µM (inactive) | > 100 µM (inactive) | > 100 µM (inactive) | > 100 µM (inactive) | > 100 µM (inactive) | > 100 µM (inactive) | > 100 µM (inactive) |  | > 100 µM (inactive)
